Where two headings read alike, the source gives them in different places.
Assays:
[1] = target: mMC1R (Mus musculus, UniProt Q01727); assay: Agonist activity of N-capped tripeptides on mouse MC1 receptor
[2] = tested on: DNA damage resulting from exposure to solar UV radiation; conditions: compared with α-MSH; ref 4a; cited from earlier work
[3] = tested on: hMC1R; conditions: cited from earlier work; for EC50: read-out: EC50 hMC1R, agonist
[4] = target: mMC4R (Mus musculus, UniProt P56450); assay: Agonist activity of N-capped tripeptides on mouse MC4 receptor
[5] = target: mMC5R (Mus musculus, UniProt P41149); assay: Agonist activity of N-capped tripeptides on mouse MC5 receptor
[6] = tested on: hMC4R; conditions: ref 3b; cited from earlier work
[7] = tested on: hMC3R; conditions: ref 3b; cited from earlier work

Chain of mMC1R (Q01727 whole entry): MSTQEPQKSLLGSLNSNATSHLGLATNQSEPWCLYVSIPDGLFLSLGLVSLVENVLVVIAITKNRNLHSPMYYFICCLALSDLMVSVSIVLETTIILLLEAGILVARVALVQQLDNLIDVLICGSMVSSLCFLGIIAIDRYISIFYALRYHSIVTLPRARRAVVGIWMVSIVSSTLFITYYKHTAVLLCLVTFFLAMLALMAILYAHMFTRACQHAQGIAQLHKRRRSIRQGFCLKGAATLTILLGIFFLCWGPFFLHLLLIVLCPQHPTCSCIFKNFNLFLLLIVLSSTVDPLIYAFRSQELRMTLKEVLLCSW
Chain of mMC4R (P56450 whole entry): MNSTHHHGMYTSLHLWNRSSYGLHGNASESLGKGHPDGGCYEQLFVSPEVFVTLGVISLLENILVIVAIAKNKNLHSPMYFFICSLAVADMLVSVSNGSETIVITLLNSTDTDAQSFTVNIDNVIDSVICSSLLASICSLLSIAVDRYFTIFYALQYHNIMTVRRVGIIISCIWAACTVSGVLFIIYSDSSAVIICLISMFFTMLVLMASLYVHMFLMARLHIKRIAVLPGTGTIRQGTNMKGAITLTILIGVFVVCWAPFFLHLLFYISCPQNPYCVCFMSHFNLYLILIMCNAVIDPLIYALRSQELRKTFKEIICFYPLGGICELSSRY
Chain of mMC5R (P41149 whole entry): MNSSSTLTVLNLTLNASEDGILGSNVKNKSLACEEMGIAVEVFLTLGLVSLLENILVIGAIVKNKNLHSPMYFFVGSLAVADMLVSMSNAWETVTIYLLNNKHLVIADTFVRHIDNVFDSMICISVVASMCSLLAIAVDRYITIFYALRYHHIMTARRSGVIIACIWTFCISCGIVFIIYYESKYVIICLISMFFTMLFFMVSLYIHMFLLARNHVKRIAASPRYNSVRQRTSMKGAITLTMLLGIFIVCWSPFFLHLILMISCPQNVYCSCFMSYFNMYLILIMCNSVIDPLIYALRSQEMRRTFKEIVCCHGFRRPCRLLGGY

EC50 [1]	EC50 [4]	EC50 [5]	loss in potency compared to 1 at mMC1R ([1]; vs tetrapeptide 1)	Compound	potency in repairing DNA damage resulting from solar UV radiation [2]	EC50 ([3]; ref 3a)	type of agonism at hMC4R [6]	EC50 ([3]; ref 3b)	type of agonism at hMC1R ([3]; ref 3b)	type of agonism at hMC3R [7]
1.6 ± 0.29 nM	0.54 ± 0.19 nM	0.33 ± 0.14 nM		N=C(N)NCCC[C@H](NC(=O)[C@@H](Cc1ccccc1)NC(=O)[C@H](Cc1c[nH]cn1)NC(=O)CCCc1ccccc1)C(=O)N[C@@H](Cc1c[nH]c2ccccc12)C(N)=O [Compound 1, Ph(CH2)3CO-His-D-Phe-Arg-Trp-NH2]	more potent than α-MSH	0.01 nM				
			590 fold	N=C(N)NCCC[C@H](NC(=O)[C@@H](Cc1ccccc1)NC(=O)[C@H](Cc1c[nH]cn1)NC(=O)CCCc1ccccc1)C(N)=O [Compound 2, Ph(CH2)3CO-His-D-Phe-Arg-NH2]			weak partial agonism	5 nM	full hMC1 agonist	weak partial agonism

Source: article PMC2758050 (Bioorganic & medicinal chemistry letters, 2009)
